Patent publication US11389438B2 (CHDI Foundation, Inc., priority 2019, dated 2022)
Counter-ions that a name gives are not always drawn.

Target: pre-formed polyQ46 or Exon1-polyQ46 aggregates (mHTT) (Homo sapiens, UniProt P42858, INS38QQQQQQQQQQQQQQQQQQQQQQQQQ)
Experiment: Q46_RBA radioligand binding assay (displacement of [3H]-radioligand)
Protocol: Binding of W to mHTT. A radioligand binding assay was developed to screen for compounds which can efficiently displace a radioligand detailed elsewhere (see, e.g., U.S. Patent Publication No. from US 2017/0292150) pre-formed polyQ46 or Exon1-polyQ46 aggregates (Q46_RBA).
Aggregation of polyQ peptides is initiated by cleavage of the tag from a GST-polyQ46 or from a MBP-Exon1-polyQ46 fusion protein. The pre-formed aggregates are then incubated with compounds which compete with the [^3H]-radiolabelled ligand for binding to the aggregates. The readout is a scintillation based MicroBeta measurement of radioligand bound to aggregates. The activity was indicated as: +++, <100 nM; ++, 100-500 nM, +, >500 nM.

Row | SMILES | IC50 [µM]
1 | Cc1ccc2nc(-c3ccc(NCCOCCOCCOc4cc(-c5scnc5C)ccc4CNC(=O)C4C[C@@H](O)CN4C(=O)[C@H](C(C)C)N4Cc5ccccc5C4=O)cc3)sc2c1 (stereo partly shown) [Compound 67] | 0.1 to 0.5
2 | CC(C)C[C@H](NC(=O)[C@@H](O)[C@H](N)Cc1ccccc1)C(=O)NCCOCCOCCOCCOc1ccc(C(=O)Nc2ccc3oc(-c4cccnc4)nc3c2)nc1 [Compound 62, 5-{2-[2-(2-{2-[(2S)-2-[(2S,3R)-3-Azaniumyl-2-hydroxy-4-phenylbutanamido]-4-methylpentanamido]ethoxy}ethoxy)ethoxy]ethoxy}-N-[2-(pyridin-3-yl)-1,3-benzoxazol-5-yl]pyridine-2-carboxamide diformate] | < 0.1
3 | CC(C)C[C@H](NC(=O)[C@@H](O)[C@H](N)Cc1ccccc1)C(=O)NCCOCCOCCOc1ccc(NC(=O)c2ccn3c(n2)nc2ccccc23)cn1 [Compound 59, N-{6-[2-(2-{2-[(2S)-2-[(2S,3R)-3-amino-2-hydroxy-4-phenylbutanamido]-4-methylpentanamido]ethoxy}ethoxy)ethoxy]pyridin-3-yl}-1,8,10-triazatricyclo[7.4.0.0^2,7]trideca-2,4,6,8,10,12-hexaene-11-carboxamide] | < 0.1
4 | Cc1ncsc1-c1ccc(CNC(=O)[C@H]2C[C@H](O)CN2C(=O)[C@H](NC(=O)COCCOc2ccc(C(=O)Nc3ccc4oc(-c5ccc(=O)n(C)n5)nc4c3)nc2)C(C)(C)C)cc1 [Compound 51, 5-[2-({[(2R)-1-[(2R,4S)-4-Hydroxy-2-({[4-(4-methyl-1,3-thiazol-5-yl)phenyl]methyl}carbamoyl)pyrrolidin-1-yl]-3,3-dimethyl-1-oxobutan-2-yl]carbamoyl}methoxy)ethoxy]-N-[2-(1-methyl-6-oxo-1,6-dihydropyridazin-3-yl)-1,3-benzoxazol-5-yl]pyridine-2-carboxamide] | < 0.1
5 | CC(C)C[C@H](NC(=O)[C@@H](O)[C@H](N)Cc1ccccc1)C(=O)NCCOCCOc1ccc(C(=O)Nc2ccc3oc(-c4ccc(=O)n(C)n4)nc3c2)nc1 [Compound 12] | < 0.1
6 | COc1ccc(C(=O)Nc2ccc3oc(-c4ccc(=O)n(CCOCCOCCNC(=O)[C@H](CC(C)C)NC(=O)[C@@H](O)[C@H](N)Cc5ccccc5)n4)nc3c2)nc1 [Compound 50, N-(2-{1-[2-(2-{2-[(2S)-2-[(2S,3R)-3-Amino-2-hydroxy-4-phenylbutanamido]-4-methylpentanamido]ethoxy}ethoxy)ethyl]-6-oxo-1,6-dihydropyridazin-3-yl}-1,3-benzoxazol-5-yl)-5-methoxypyridine-2-carboxamide] | < 0.1
7 | Cn1nc(-c2nc3cc(NC(=O)c4ccc(OCCOCCNc5cccc6c5C(=O)N(C5CCC(=O)NC5=O)C6=O)cn4)ccc3o2)ccc1=O (stereo not shown) [Compound 35] | < 0.1
8 | CC(C)C[C@H](NC(=O)[C@@H](O)[C@H](N)Cc1ccccc1)C(=O)NCCOCCOCCOCCOCCOCCOc1ccc(C(=O)Nc2ccc3oc(-c4ccc(=O)n(C)n4)nc3c2)nc1 [Compound 16] | < 0.1
9 | Cc1ncsc1-c1ccc(CNC(=O)[C@@H]2C[C@@H](O)CN2C(=O)[C@@H](NC(=O)COCCOc2ccc(C(=O)Nc3ccc4oc(-c5ccc(=O)n(C)n5)nc4c3)nc2)C(C)(C)C)cc1 [Compound 29] | < 0.1
10 | CC(C)C[C@H](NC(=O)[C@@H](O)[C@H](N)Cc1ccccc1)C(=O)NCCOCCOCCOc1ccc(C(=O)Nc2ccc3oc(-c4ccc(=O)n(C)n4)nc3c2)nc1 (stereo in doubt) [Compound 13] | < 0.1
11 | CC(C)C[C@H](NC(=O)[C@@H](O)[C@H](N)Cc1ccccc1)C(=O)NCCOCCOCCOc1ccc(C(=O)Nc2ccc3oc(-c4cccnc4)nc3c2)nc1 [Compound 61] | < 0.1
12 | Cc1ncsc1-c1ccc(CNC(=O)[C@H]2C[C@H](O)CN2C(=O)[C@H](NC(=O)CCOCCOCCOCCOCCOCCOc2ccc(C(=O)Nc3ccc4oc(-c5ccc(=O)n(C)n5)nc4c3)nc2)C(C)(C)C)cc1 [Compound 41] | < 0.1
13 | CC(C)C[C@H](NC(=O)[C@@H](O)[C@H](N)Cc1ccccc1)C(=O)NCCOCCOCCOCCOCCOCCOCCOCCOCCOc1ccc(C(=O)Nc2ccc3oc(-c4ccc(=O)n(C)n4)nc3c2)nc1 [Compound 17] | < 0.1
14 | Cc1ccc2nc(-c3ccc(NCCOCCOCCOc4cccc5c4C(=O)N(C4CCC(=O)NC4=O)C5=O)cc3)sc2c1 (stereo not shown) [Compound 63] | < 0.1
15 | CC(C)C[C@H](NC(=O)CCCc1ccccc1)C(=O)NCCOCCOCCOc1ccc(COc2ccc3oc(-c4ccc(=O)n(C)n4)nc3c2)nc1 [Compound 52, (2S)-4-Methyl-N-{2-[2-(2-{[6-({[2-(1-methyl-6-oxo-1,6-dihydropyridazin-3-yl)-1,3-benzoxazol-5-yl]oxy}methyl)pyridin-3-yl]oxy}ethoxy)ethoxy]ethyl}-2-(4-phenylbutanamido)pentanamide] | < 0.1
16 | CNc1c(-c2cn3c(n2)sc2cc(OCCOCCOc4cc(-c5scnc5C)ccc4CNC(=O)[C@@H]4C[C@@H](O)CN4C(=O)[C@H](C(C)C)N4Cc5ccccc5C4=O)ccc23)nc2cc(C#N)ccn12 [Compound 6] | 0.1 to 0.5

Row | SMILES | IC50 [µM]
17 | CC(C)C[C@H](NC(=O)[C@@H](O)[C@H](N)Cc1ccccc1)C(=O)NCCOCCOCCOCCOc1ccc(C(=O)Nc2ccc3oc(-c4ccc(=O)n(C)n4)nc3c2)nc1 [Compound 14] | < 0.1
18 | Cc1ccc2nc(-c3ccc(NCCOCCOCCOCCNc4cccc5c4C(=O)N(C4CCC(=O)NC4=O)C5=O)cc3)sc2c1 (stereo not shown) [Compound 68] | 0.1 to 0.5
19 | CNc1c(-c2cn3c(n2)sc2cc(OCCOCCNc4cccc5c4C(=O)N(C4CCC(=O)NC4=O)C5=O)ccc23)nc2cc(C#N)ccn12 (stereo not shown) [Compound 9] | < 0.1
20 | Cc1ccc2nc(-c3ccc(NC(=O)COCCOCCNC(=O)[C@H](CC(C)C)NC(=O)[C@@H](O)[C@H](N)Cc4ccccc4)cc3)sc2c1 [Compound 66] | 0.1 to 0.5
21 | COc1ccc(NC(=O)c2ccnc(N(CCOCCOCCNC(=O)[C@H](CC(C)C)NC(=O)[C@@H](O)[C@H](N)Cc3ccccc3)c3ccccc3)n2)cn1 [Compound 69] | > 0.5
22 | CC(C)C[C@H](NC(=O)[C@@H](O)[C@H](N)Cc1ccccc1)C(=O)NCCOCCOCCNc1ccc(NC(=O)c2ccn3c(n2)nc2ccccc23)cn1 [Compound 60, N-(6-{[2-(2-{2-[(2S)-2-[(2S,3R)-3-azaniumyl-2-hydroxy-4-phenylbutanamido]-4-methylpentanamido]ethoxy}ethoxy)ethyl]amino}pyridin-3-yl)-1,8,10-triazatricyclo[7.4.0.0^2,7]trideca-2,4,6,8,10,12-hexaene-11-carboxamide formate] | < 0.1
23 | Cc1ccc2nc(-c3ccc(NCCOCCOCCNc4cccc5c4C(=O)N(C4CCC(=O)NC4=O)C5=O)cc3)sc2c1 (stereo not shown) [Compound 65] | 0.1 to 0.5
24 | Cc1ncsc1-c1ccc(CNC(=O)[C@H]2C[C@H](O)CN2C(=O)[C@H](NC(=O)CCOCCOCCOCCOCCOCCOCCOCCOCCOCCOCCOCCOCCOCCOCCOCCOCCOc2ccc(C(=O)Nc3ccc4oc(-c5ccc(=O)n(C)n5)nc4c3)nc2)C(C)(C)C)cc1 [Compound 27] | 0.1 to 0.5
25 | CNc1c(-c2cn3c(n2)sc2cc(OCCOc4cc(-c5scnc5C)ccc4CNC(=O)[C@@H]4C[C@@H](O)CN4C(=O)[C@H](C(C)C)N4Cc5ccccc5C4=O)ccc23)nc2cc(C#N)ccn12 [Compound 5, (2S,4R)—N-(2-(2-((2-(7-cyano-3-(methylamino)imidazo[1,2-a]pyridin-2-yl)benzo[d]imidazo[2,1-b]thiazol-7-yl)oxy)ethoxy)-4-(4-methylthiazol-5-yl)benzyl)-4-hydroxy-1-((S)-3-methyl-2-(1-oxoisoindolin-2-yl)butanoyl)pyrrolidine-2-carboxamide] | 0.1 to 0.5
26 | CNc1c(-c2cn3c(n2)sc2cc(OCCOCCOCCOCCOCC(=O)N[C@H](C(=O)N4C[C@H](O)C[C@H]4C(=O)NCc4ccc(-c5scnc5C)cc4)C(C)(C)C)ccc23)nc2cc(C#N)ccn12 [Compound 4, (2S,4R)-1-((S)-2-(tert-butyl)-17-((2-(7-cyano-3-(methylamino)-imidazo[1,2-a]pyridin-2-yl)benzo[d]imidazo[2,1-b]thiazol-7-yl)oxy)-4-oxo-6,9,12,15-tetraoxa-3-azaheptadecan-1-oyl)-4-hydroxy-N-(4-(4-methylthiazol-5-yl)benzyl)-pyrrolidine-2-carboxamide] | 0.1 to 0.5
27 | CNc1c(-c2cn3c(n2)sc2cc(OCCOCCOCCOc4cc(-c5scnc5C)ccc4CNC(=O)[C@@H]4C[C@@H](O)CN4C(=O)[C@H](C(C)C)N4Cc5ccccc5C4=O)ccc23)nc2cc(C#N)ccn12 [Compound 7] | 0.1 to 0.5
28 | Cc1ccc2nc(-c3ccc(NCCOCCOCC(=O)N[C@H](C(=O)N4C[C@H](O)C[C@H]4C(=O)NCc4ccc(-c5scnc5C)cc4)C(C)(C)C)cc3)sc2c1 [Compound 64] | > 0.5
29 | CC(C)C[C@H](NC(=O)[C@@H](O)[C@H](N)Cc1ccccc1)C(=O)NCCOCCOCCOCCOCCOc1ccc(C(=O)Nc2ccc3oc(-c4ccc(=O)n(C)n4)nc3c2)nc1 [Compound 15] | < 0.1
30 | CC(C)C[C@H](NC(=O)[C@@H](O)[C@H](N)Cc1ccccc1)C(=O)NCCOCCOCCOc1ccc(COc2ccc3oc(-c4ccc(=O)n(C)n4)nc3c2)nc1 [Compound 49, (2S)-2-[(2S,3R)-3-Azaniumyl-2-hydroxy-4-phenylbutanamido]-4-methyl-N-{2-[2-(2-{[6-({[2-(1-methyl-6-oxo-1,6-dihydropyridazin-3-yl)-1,3-benzoxazol-5-yl]oxy}methyl)pyridin-3-yl]oxy}ethoxy)ethoxy]ethyl}pentanamide formate] | < 0.1
31 | CNc1c(-c2cn3c(n2)sc2cc(OCCOCCOCCOCCOc4cc(-c5scnc5C)ccc4CNC(=O)[C@@H]4C[C@@H](O)CN4C(=O)[C@H](C(C)C)N4Cc5ccccc5C4=O)ccc23)nc2cc(C#N)ccn12 [Compound 8] | 0.1 to 0.5
